Structures can show the parent of a compound that is named as a salt.
Tested on: patients who meet the 1990 ACR criteria for fibromyalgia syndrome
Assay: Example 2: multicenter, double-blind, randomized, placebo-controlled monotherapy study of milnacipran for treatment of fibromyalgia (1196 patients)
Format: in vivo, human
Design: Mean Change from Baseline in PFI SF-36 domain score / Mean Change from Baseline in ROLP SF-36 domain score / Mean Change from Baseline in PAIN SF-36 domain score / Mean Change from Baseline in GHP SF-36 domain score: scale not given here
Conditions: for time-weighted average (AUC) of SF-36 PCS Scores, Median / time-weighted average (AUC) of SF-36 PCS Scores, Mean: Visits Tx3-Tx15, intent to treat; for Composite Pain: number of responders / Composite Syndrome: number of responders / PGIC Component: number of responders / Pain Component: number of responders / SF36 PCS Component: number of responders: 200 mg (396); for time-weighted average (AUC) of SF-36 PCS Scores, Difference from Placebo / time-weighted average (AUC) of SF-36 PCS Scores, LS Mean: Tx3-Tx15, ANCOVA model
Experimental: The primary outcome was a composite responder analysis assessing response rates of two doses (100 mg/day and 200 mg/day) of milnacipran as compared with placebo at Visit Tx15 (week 15).
This was a multicenter, randomized, double-blind, placebo-controlled three-arm study designed which enrolled 1196 patients who meet the 1990 ACR criteria for fibromyalgia syndrome (history of widespread pain and pain in 11 of 18 tender point sites on digital palpation), as well as the more detailed admission criteria outlined in the protocol.
Patients were randomized to receive placebo, 100 mg/day milnacipran or 200 mg/day milnacipran in a ratio of 1:1:1 (placebo=401 patients, 100 mg/day=399 patients, 200 mg/day=396 patients). The patients assigned to the two active treatment arms received a total of 12 weeks of stable-dose milnacipran exposure after the 3 weeks of dosage escalation steps, for a total of 15 weeks of drug exposure. All randomized medications (placebo and milnacipran) were administered twice a day (BID).
The primary efficacy assessment of this study was a composite responder status defined by three domains of interest evaluated at visit Tx15. The domains measured were
1) pain (measured by an electronic diary in the morning as a daily recall pain score); 2) patient global (measured by the PGIC, 1-7 scale); 3) physical function (measured by the SF-36 PCS).
The secondary efficacy parameters were time-weighted average (AUC) of the weekly average PED morning recall pain scores for Weeks 4 through 15, PGIC, and SF-36 PCS for Visit Tx3 to Visit Tx15.
The physical function domain for response analysis was measured by the Physical Component Summary of SF-36 (SF-36 PCS). The SF-36 is a brief, well-established, self-administered patient questionnaire for the assessment of health status, functional status, and quality of life. The SF-36 measures eight domains of health status: physical functioning, role limitations due to physical problems, bodily pain, general health perceptions, energy/vitality, social functioning, role limitations due to emotional problems, and mental health. An SF-36 PCS score and a mental component summary (MCS) score can be calculated by combining and weighting the various individual scales. The PCS and MCS scores have been standardized to have a mean=50, SD=10 in the general healthy US population (see, e.g., Ware, J., M. Kosinski, and J. Dewey, How to Score Version 2 of the SF-36 Health Survey (Standard & Acute Forms). 3rd ed. 2000, Lincoln, R.I.: QualityMetric).
A patient was classified as a responder for the treatment of pain of fibromyalgia if he or she reached Visit Tx15 and satisfied the following criteria: • Greater than or equal to 30% in pain reduction from baseline; • PGIC rated as “much or very much improved,” (i.e., a score of 1 or 2 on the 1-7 scale at endpoint.)
A patient was classified as a responder for the treatment of FMS if he or she satisfied the responder criteria for the treatment of pain of fibromyalgia and the following additional criterion (at visit Tx15): • Improvement on the SF-36 PCS score from baseline by an amount at least equivalent to the minimal clinically important difference, as defined in the Statistical Analysis Plan.
Table 6 summarizes 3-month results for the Baseline Observation Carried Forward (BOCF), Last Observation Carried Forward (LOCF) and study completer (OC) populations. LOCF is an analysis in which observations are carried forward to the last time point for patients who dropped out. The LOCF analysis treats the carried-forward data as observed data at the last time point. BOCF is an analysis that requires that the patient remain active in the trial to be evaluated for response. If a patient withdrew from the trial for any reason, they were classified as a non-responder irregardless of their pain and global scores at the time of withdrawal. […]

## CCN(CC)C(=O)C1(c2ccccc2)CC1CN (racemic) [milnacipran, Z-2-aminomethyl-1-phenyl-N,N-diethylcyclopropanecarboxamide hydrochloride]
100 mg, OC
  time-weighted average (AUC) of SF-36 PCS Scores, Median: 432.8
3-months, BOCF
  Composite Pain: number of responders: 98
  Composite Syndrome: number of responders: 55
  PGIC Component: number of responders: 129
  Pain Component: number of responders: 119
  SF36 PCS Component: number of responders: 89
3-months, LOCF
  Composite Pain: number of responders: 117
  Composite Syndrome: number of responders: 65
  PGIC Component: number of responders: 151
  Pain Component: number of responders: 158
  SF36 PCS Component: number of responders: 109
200 mg, 3-months, BOCF
  Composite Pain: responder rate: (24.75%)
  Composite Pain: responder rate difference from placebo (unlabelled line): 8.29%
  Composite Syndrome: responder rate: (13.89%)
  Composite Syndrome: responder rate difference from placebo (unlabelled line): 5.16%
  PGIC Component: responder rate: (32.58%)
  PGIC Component: responder rate difference from placebo (unlabelled line): 9.64%
  Pain Component: responder rate: (30.05%)
  Pain Component: responder rate difference from placebo (unlabelled line): 4.86%
  SF36 PCS Component: responder rate: (22.47%)
  SF36 PCS Component: responder rate difference from placebo (unlabelled line): 1.02%
200 mg, 3-months, LOCF
  Composite Pain: responder rate: (29.55%)
  Composite Pain: responder rate difference from placebo (unlabelled line): 11.35%
  Composite Syndrome: responder rate: (16.41%)
  Composite Syndrome: responder rate difference from placebo (unlabelled line): 6.68%
  PGIC Component: responder rate: (38.13%)
  PGIC Component: responder rate difference from placebo (unlabelled line): 13.19%
  Pain Component: responder rate: (39.90%)
  Pain Component: responder rate difference from placebo (unlabelled line): 11.22%
  SF36 PCS Component: responder rate: (27.53%)
  SF36 PCS Component: responder rate difference from placebo (unlabelled line): 2.09%
200 mg, 3-months, OC
  Composite Pain: m/n = # of responders/# of patients included: 98/215
  Composite Pain: responder rate: (45.58%)
  Composite Pain: responder rate difference from placebo (unlabelled line): 20.39%
  Composite Syndrome: m/n = # of responders/# of patients included: 55/215
  Composite Syndrome: responder rate: (25.58%)
  Composite Syndrome: responder rate difference from placebo (unlabelled line): 12.22%
  PGIC Component: m/n = # of responders/# of patients included: 129/255
  PGIC Component: responder rate: (50.59%)
  PGIC Component: responder rate difference from placebo (unlabelled line): 18.76%
  Pain Component: m/n = # of responders/# of patients included: 119/217
  Pain Component: responder rate: (54.84%)
  Pain Component: responder rate difference from placebo (unlabelled line): 16.44%
  SF36 PCS Component: m/n = # of responders/# of patients included: 89/255
  SF36 PCS Component: responder rate: (34.90%)
  SF36 PCS Component: responder rate difference from placebo (unlabelled line): 5.24%
200 mg, LOCF
  time-weighted average (AUC) of SF-36 PCS Scores, Difference from Placebo: 8.36
  time-weighted average (AUC) of SF-36 PCS Scores, LS Mean: 420.38
  time-weighted average (AUC) of SF-36 PCS Scores, Mean: 418.97
  time-weighted average (AUC) of SF-36 PCS Scores, Median: 419.2
200 mg, OC
  time-weighted average (AUC) of SF-36 PCS Scores, Difference from Placebo: 11.17
  time-weighted average (AUC) of SF-36 PCS Scores, LS Mean: 429.46
  time-weighted average (AUC) of SF-36 PCS Scores, Mean: 428.24
  time-weighted average (AUC) of SF-36 PCS Scores, Median: 428.4
200 mg, Tx 15, Observed Cohort
  Mean Change from Baseline in GHP SF-36 domain score: 6.6
  Mean Change from Baseline in PAIN SF-36 domain score: 18.2
  Mean Change from Baseline in PCS Score at Tx 15: 3.9
  Mean Change from Baseline in PFI SF-36 domain score: 6.9
  Mean Change from Baseline in ROLP SF-36 domain score: 14.9

Reference: US20080293820A1, “METHODS FOR IMPROVING PHYSICAL FUNCTION IN FIBROMYALGIA” (Cypress Bioscience, Inc., priority 2007, published 2008)
